# Reference: US9302999B2, “Substituted triazoles as herbicides” (E. I. DU PONT DE NEMOURS AND COMPANY, priority 2012, dated 2016)
# Columns and labels:
# Assay type in all cases: in vivo
# [1] = tested on: ducksalad (Heteranthera limosa); test: Test C flooded paddy test: ducksalad; conditions: scale 0 to 100 (0 no effect, 100 complete control)
# In short: (§1)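 Greenhouse plants treated at the 2-leaf stage by dosing the flood water (3 cm depth, maintained) were compared with controls after 13 to 15 days and rated 0 to 100, where 100 means complete control; a dash marks no test result.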
# [2] = tested on: foxtail, giant (giant foxtail, Setaria faberii); test: Test A pre-/postemergence: foxtail, giant
# In short: (§2)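 Pre: directed soil spray after planting in loam + sand. Post: same formulation (non-phytotoxic solvent + surfactant) on 1–2-leaf plants, 2–10 cm. Greenhouse ~10 d; visual injury 0–100 vs untreated.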
# [3] = tested on: crabgrass, large (large crabgrass, Digitaria sanguinalis); test: Test A pre-/postemergence: crabgrass, large
# In short: as §2
# [4] = tested on: velvetleaf (Abutilon theophrasti); test: Test A pre-/postemergence: velvetleaf
# In short: as §2
# rice (Oryza sativa) = test: Test C flooded paddy test: rice; conditions: scale 0 to 100 (0 no effect, 100 complete control)
# In short: as §1
# [5] = tested on: wheat (Triticum aestivum); test: Test A pre-/postemergence: wheat
# In short: as §2
# [6] = tested on: barnyardgrass (Echinochloa crus-galli); test: Test C flooded paddy test: barnyardgrass; conditions: scale 0 to 100 (0 no effect, 100 complete control)
# In short: as §1
# [7] = tested on: morningglory (Ipomoea spp.); test: Test A pre-/postemergence: morningglory
# In short: as §2
# [8] = tested on: pigweed (Amaranthus retroflexus); test: Test A pre-/postemergence: pigweed
# In short: as §2
# [9] = tested on: barnyardgrass (Echinochloa crus-galli); test: Test A pre-/postemergence: barnyardgrass
# In short: as §2
# [10] = tested on: sedge, umbrella (small-flower umbrella sedge, Cyperus difformis); test: Test C flooded paddy test: sedge, umbrella; conditions: scale 0 to 100 (0 no effect, 100 complete control)
# In short: as §1
# corn (Zea mays) = test: Test A pre-/postemergence: corn
# In short: as §2
# [11] = Flood (flooded paddy test), 250 g ai/ha, visual rating after 13 to 15 days
# [12] = Postemergence, 1000 g ai/ha, visual rating on 0 to 100 scale (0 no effect, 100 complete control), approximately ten days
# [13] = Preemergence, 1000 g ai/ha, 0 to 100 scale, 0 is no effect, 100 is complete control
# [14] = Flood (flooded paddy test), 125 g ai/ha, visual rating after 13 to 15 days
# [15] = Postemergence, 125 g ai/ha, 0 to 100 scale, 0 is no effect, 100 is complete control
# [16] = Postemergence, 500 g ai/ha, visual rating on 0 to 100 scale (0 no effect, 100 complete control), approximately ten days
# [17] = Preemergence, 125 g ai/ha, 0 to 100 scale where 0 is no effect and 100 is complete control
# [18] = Preemergence, 500 g ai/ha, 0 to 100 scale, 0 is no effect, 100 is complete control
# [19] = Preemergence, 125 g ai/ha, 0 to 100 scale (0 no effect, 100 complete control)
structure (smiles),measurement,setting,value
Cc1nn(-c2ccc(C(F)(F)F)cc2)nc1Cn1cnc(C(F)(F)F)c1 [Compound 96],"Plant response rating, Ducksalad",[1]; [11],50
same,"Plant response rating, Ducksalad","[1]; Flood, 62 g ai/ha",40
same,"Foxtail, Giant plant response rating",[2]; [12],60
same,"Foxtail, Giant plant response rating",[2]; [13],90
same,"Crabgrass, Large plant response rating",[3]; [12],70
same,"Crabgrass, Large plant response rating",[3]; [13],100
same,Velvetleaf plant response rating,[4]; [12],70
same,Velvetleaf plant response rating,[4]; [13],0
same,"Plant response rating, Rice",rice (Oryza sativa); [11],0
same,"Plant response rating, Rice","rice (Oryza sativa); Flood, 62 g ai/ha",0
same,Wheat plant response rating,[5]; [12],30
same,Wheat plant response rating,[5]; [13],0
same,"Plant response rating, Barnyardgrass",[6]; [11],10
same,"Plant response rating, Barnyardgrass","[6]; Flood, 62 g ai/ha",10
same,Morningglory plant response rating,[7]; [12],80
same,Morningglory plant response rating,[7]; [13],40
same,Pigweed plant response rating,[8]; [12],90
same,Pigweed plant response rating,[8]; [13],100
same,Barnyardgrass plant response rating,[9]; [12],40
same,Barnyardgrass plant response rating,[9]; [13],70
same,"Plant response rating, Sedge, Umbrella",[10]; [11],80
same,"Plant response rating, Sedge, Umbrella","[10]; Flood, 62 g ai/ha",75
same,Corn plant response rating,corn (Zea mays); [12],30
same,Corn plant response rating,corn (Zea mays); [13],0
Cc1nn(-c2ccc(F)cc2)nc1Oc1cccc(C(F)(F)F)c1 [Compound 98],"Plant response rating, Ducksalad",[1]; [14],30
same,"Plant response rating, Ducksalad",[1]; [11],70
same,"Plant response rating, Ducksalad","[1]; Flood, 31 g ai/ha",0
same,"Plant response rating, Ducksalad","[1]; Flood, 62 g ai/ha",0
same,"Foxtail, Giant plant response rating",[2]; [15],80
same,"Foxtail, Giant plant response rating",[2]; [16],90
same,"Plant response rating, Foxtail, Giant",[2]; [17],70
same,"Plant response rating, Foxtail, Giant",[2]; [18],100
same,"Crabgrass, Large plant response rating",[3]; [15],90
same,"Crabgrass, Large plant response rating",[3]; [16],90
same,"Plant response rating, Crabgrass, Large",[3]; [19],80
same,"Plant response rating, Crabgrass, Large",[3]; [18],100
same,Velvetleaf plant response rating,[4]; [15],60
same,Velvetleaf plant response rating,[4]; [16],80
same,"Plant response rating, Velvetleaf",[4]; [17],0
same,"Plant response rating, Velvetleaf",[4]; [18],50
same,"Plant response rating, Rice",rice (Oryza sativa); [14],30
same,"Plant response rating, Rice",rice (Oryza sativa); [11],40
same,"Plant response rating, Rice","rice (Oryza sativa); Flood, 31 g ai/ha",0
same,"Plant response rating, Rice","rice (Oryza sativa); Flood, 62 g ai/ha",0
same,Wheat plant response rating,[5]; [15],10
same,Wheat plant response rating,[5]; [16],30
same,"Plant response rating, Wheat",[5]; [17],0
same,"Plant response rating, Wheat",[5]; [18],20
same,"Plant response rating, Barnyardgrass",[6]; [14],30
same,"Plant response rating, Barnyardgrass",[6]; [11],70
same,"Plant response rating, Barnyardgrass","[6]; Flood, 31 g ai/ha",0
same,"Plant response rating, Barnyardgrass","[6]; Flood, 62 g ai/ha",0
same,Morningglory plant response rating,[7]; [15],80
same,Morningglory plant response rating,[7]; [16],100
same,"Plant response rating, Morningglory",[7]; [17],0
same,"Plant response rating, Morningglory",[7]; [18],10
same,Pigweed plant response rating,[8]; [15],100
same,Pigweed plant response rating,[8]; [16],100
same,"Plant response rating, Pigweed",[8]; [17],60
same,"Plant response rating, Pigweed",[8]; [18],100
same,Barnyardgrass plant response rating,[9]; [15],30
same,Barnyardgrass plant response rating,[9]; [16],80
same,"Plant response rating, Barnyardgrass",[9]; [19],10
same,"Plant response rating, Barnyardgrass",[9]; [18],60
same,"Plant response rating, Sedge, Umbrella",[10]; [14],40
same,"Plant response rating, Sedge, Umbrella",[10]; [11],80
same,"Plant response rating, Sedge, Umbrella","[10]; Flood, 31 g ai/ha",0
same,"Plant response rating, Sedge, Umbrella","[10]; Flood, 62 g ai/ha",0
same,Corn plant response rating,corn (Zea mays); [15],20
same,Corn plant response rating,corn (Zea mays); [16],30
same,"Plant response rating, Corn",corn (Zea mays); [19],0
same,"Plant response rating, Corn",corn (Zea mays); [18],10
